Laboratory results reported in patent publication US8017612B2, “Piperazine compound and use thereof as a HCV polymerase inhibitor” (priority 2006, dated 2011).

Key:
[1] = target: T1, HCV polymerase (NS5B) type 1b (Hepatitis C virus genotype 1b, UniProt P26663); assay: Assay of enzyme (HCV polymerase) inhibitory activity, type 1b enzyme; type: biochemical, HCV BK strain (type 1b); conditions: HCV polymerase inhibitory activity IC50, 1b, type 1b enzyme
T1 construct: a region encoding NS5B (J Virol 1991 March, 65(3), 1105-13, 544 amino acids after deletion of 47 amino acids on the C-terminal); 6xHis (C); made in house; host or cells: Escherichia coli
Outline: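 Rxn: NS5B 1b (BK, ΔC47, His6) 0.5 μg/ml; substrate RNA 5 μg/ml; ATP/GTP/CTP 50 μM, UTP 2 μM + [5,6-3H]UTP; 20 mM Tris pH 7.5, 5 mM MgCl2, 50 mM NaCl, 1 mM EDTA/DTT. 25 °C, 60 min. Stop with TCA/pyrophosphate, filter, scintillation count; IC50 vs. untreated.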

[2] = target: T2, HCV polymerase (NS5B) type 1a (Hepatitis C virus genotype 1a, UniProt P26664); assay: Assay of enzyme (HCV polymerase) inhibitory activity, type 1a enzyme; type: biochemical, HCV type 1a (cloned from the blood of patients); conditions: HCV polymerase inhibitory activity IC50, 1a, type 1a enzyme
T2 construct: made in house; host or cells: Escherichia coli (by the 'similar method' of the 1b enzyme)
Outline: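 NS5B Δ47 C-term His6 (type 1a, 1.5 μg/ml); substrate RNA 5 μg/ml; ATP/GTP/CTP 50 μM, UTP 2 μM + [5,6-3H]UTP; Tris pH 7.5, MgCl2 5 mM; 25° C, 60 min. TCA/pyrophosphate stop, GF/B filter, scintillation. IC50 vs no-compound control.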

| SMILES | IC50 [1] | IC50 [2] |
| --- | --- | --- |
| O=C(NCc1ccc(OC(F)(F)F)cc1)[C@H]1CN(c2nc3nc(CN4CCCC4)ncc3s2)CCN1S(=O)(=O)c1ccc(OC(F)(F)F)cc1 [Example 1056, (R)-4-(5-pyrrolidin-1-ylmethyl-thiazolo[4,5-d]pyrimidin-2-yl)-1-(4-trifluoromethoxy-benzenesulfonyl)-piperazine-2-carboxylic acid 4-trifluoromethoxy-benzylamide] | < 0.1 µM | < 0.1 µM |
| O=C(NCc1ccc(OC(F)F)cc1)[C@H]1CN(c2nn3ccc(=O)nc3s2)CCN1S(=O)(=O)c1ccc(C(F)(F)F)cc1 [Example 1057, (R)-4-(7-oxo-7H-[1,3,4]thiadiazolo[3,2-a]pyrimidin-2-yl)-1-(4-trifluoromethyl-benzenesulfonyl)-piperazine-2-carboxylic acid 4-difluoromethoxy-benzylamide] | < 0.1 µM | < 0.1 µM |
| O=C(NCc1ccc(OC(F)(F)F)cc1)[C@H]1CN(c2nn3ccc(=O)nc3s2)CCN1S(=O)(=O)c1ccc(OC(F)F)cc1 [Example 1058, (R)-1-(4-difluoromethoxy-benzenesulfonyl)-4-(7-oxo-7H-[1,3,4]thiadiazolo[3,2-a]pyrimidin-2-yl)-piperazine-2-carboxylic acid 4-trifluoromethoxy-benzylamide] | < 0.1 µM | < 0.1 µM |
| O=C(NCc1ccc(OC(F)(F)F)cc1)[C@H]1CN(c2nn3ccc(=O)nc3s2)CCN1S(=O)(=O)c1ccc(C(F)(F)F)cc1 [Example 1059, (R)-4-(7-oxo-7H-[1,3,4]thiadiazolo[3,2-a]pyrimidin-2-yl)-1-(4-trifluoromethyl-benzenesulfonyl)-piperazine-2-carboxylic acid 4-trifluoromethoxy-benzylamide] | < 0.1 µM | < 0.1 µM |
| CC(O)c1ncc2sc(N3CCN(S(=O)(=O)c4ccc(OC(F)(F)F)cc4)[C@@H](C(=O)NCc4ccc(OC(F)(F)F)cc4)C3)nc2n1 (stereo partly drawn) [Example 1060, (R)-4-[5-(1-hydroxy-ethyl)-thiazolo[4,5-d]pyrimidin-2-yl]-1-(4-trifluoromethoxy-benzenesulfonyl)-piperazine-2-carboxylic acid 4-trifluoromethoxy-benzylamide] | < 0.1 µM | < 0.1 µM |
| O=C(NCc1ccc(OC(F)F)c(F)c1)[C@H]1CN(c2nc3nc(C(F)(F)F)ncc3s2)CCN1S(=O)(=O)c1ccc(OC(F)(F)F)cc1 [Example 1061, (R)-1-(4-trifluoromethoxy-benzenesulfonyl)-4-(5-trifluoromethyl-thiazolo[4,5-d]pyrimidin-2-yl)-piperazine-2-carboxylic acid 4-difluoromethoxy-3-fluoro-benzylamide] | < 0.1 µM | < 0.1 µM |
| O=C(NCc1ccc(OC(F)(F)F)cc1)[C@H]1CN(c2nc3ccc(=O)[nH]c3s2)CCN1S(=O)(=O)c1ccc(OC(F)(F)F)cc1 [Example 1062, (R)-4-(5-oxo-4,5-dihydro-thiazolo[5,4-b]pyridin-2-yl)-1-(4-trifluoromethoxy-benzenesulfonyl)-piperazine-2-carboxylic acid 4-trifluoromethoxy-benzylamide] | < 0.1 µM | < 0.1 µM |
| O=C(NCc1ccc(OC(F)F)cc1)[C@H]1CN(c2nn3ccc(=O)nc3s2)CCN1S(=O)(=O)c1ccc(OC(F)F)cc1 [Example 1063, (R)-1-(4-difluoromethoxy-benzenesulfonyl)-4-(7-oxo-7H-[1,3,4]thiadiazolo[3,2-a]pyrimidin-2-yl)-piperazine-2-carboxylic acid 4-difluoromethoxy-benzylamide] | < 0.1 µM | < 0.1 µM |
| CCCc1ccc(CNC(=O)[C@H]2CN(c3nc4c(C(=O)OCC)cncc4s3)CCN2S(=O)(=O)c2ccc(CC)cc2)cc1 [Example 1064, 2-[(R)-4-(4-ethyl-benzenesulfonyl)-3-(4-propyl-benzylcarbamoyl)-piperazin-1-yl]-thiazolo[5,4-c]pyridine-7-carboxylic acid ethyl ester] | < 0.1 µM | < 0.1 µM |
| CCCc1ccc(CNC(=O)[C@H]2CN(c3nc4c(C(=O)O)cncc4s3)CCN2S(=O)(=O)c2ccc(CC)cc2)cc1 [Example 1065, 2-[(R)-4-(4-ethyl-benzenesulfonyl)-3-(4-propyl-benzylcarbamoyl)-piperazin-1-yl]-thiazolo[5,4-c]pyridine-7-carboxylic acid] | < 0.1 µM | < 0.1 µM |
| O=C(NCc1ccc(OC(F)F)cc1)[C@H]1CN(c2nn3c(C(F)(F)F)cc(=O)nc3s2)CCN1S(=O)(=O)c1ccc(OC(F)(F)F)cc1 [Example 1066, (R)-4-(7-oxo-5-trifluoromethyl-7H-[1,3,4]thiadiazolo[3,2-a]pyrimidin-2-yl)-1-(4-trifluoromethoxy-benzenesulfonyl)-piperazine-2-carboxylic acid 4-difluoromethoxy-benzylamide] | < 0.1 µM | < 0.1 µM |
| O=C(NCc1ccc(OC(F)(F)F)cc1)[C@H]1CN(c2nn3c(C(F)(F)F)cc(=O)nc3s2)CCN1S(=O)(=O)c1ccc(C(F)(F)F)cc1 [Example 1067, (R)-4-(7-oxo-5-trifluoromethyl-7H-[1,3,4]thiadiazolo[3,2-a]pyrimidin-2-yl)-1-(4-trifluoromethyl-benzenesulfonyl)-piperazine-2-carboxylic acid 4-trifluoromethoxy-benzylamide] | < 0.1 µM | < 0.1 µM |
| O=C(NCc1ccc(OC(F)F)cc1)[C@H]1CN(c2nn3c(C(F)(F)F)cc(=O)nc3s2)CCN1S(=O)(=O)c1ccc(C(F)(F)F)cc1 [Example 1068, (R)-4-(7-oxo-5-trifluoromethyl-7H-[1,3,4]thiadiazolo[3,2-a]pyrimidin-2-yl)-1-(4-trifluoromethyl-benzenesulfonyl)-piperazine-2-carboxylic acid 4-difluoromethoxy-benzylamide] | < 0.1 µM | < 0.1 µM |
| O=C(NCc1ccc(OC(F)(F)F)cc1)[C@H]1CN(c2nc3nc(C4CCC4)ncc3s2)CCN1S(=O)(=O)c1ccc(OC(F)(F)F)cc1 [Example 1069, (R)-4-(5-cyclobutyl-thiazolo[4,5-d]pyrimidin-2-yl)-1-(4-trifluoromethoxy-benzenesulfonyl)-piperazine-2-carboxylic acid 4-trifluoromethoxy-benzylamide] | < 0.1 µM | < 0.1 µM |
| COCCc1ncc2sc(N3CCN(S(=O)(=O)c4ccc(OC(F)(F)F)cc4)[C@@H](C(=O)NCc4ccc(OC(F)(F)F)cc4)C3)nc2n1 [Example 1070, (R)-4-[5-(2-methoxy-ethyl)-thiazolo[4,5-d]pyrimidin-2-yl]-1-(4-trifluoromethoxy-benzenesulfonyl)-piperazine-2-carboxylic acid 4-trifluoromethoxy-benzylamide] | < 0.1 µM | < 0.1 µM |
| COCCn1ncc2sc(N3CCN(S(=O)(=O)c4ccc(OC(F)(F)F)cc4)[C@@H](C(=O)NCc4ccc(OC(F)(F)F)cc4)C3)nc2c1=O [Example 1071, (R)-4-[5-(2-methoxy-ethyl)-4-oxo-4,5-dihydro-thiazolo[4,5-d]pyridazin-2-yl]-1-(4-trifluoromethoxy-benzenesulfonyl)-piperazine-2-carboxylic acid 4-trifluoromethoxy-benzylamide] | < 0.1 µM | < 0.1 µM |
